Four molecules from article PMC6862250, “Lipophilicity Determination of Quaternary (Fluoro)Quinolones by Chromatographic and Theoretical Approaches” (International Journal of Molecular Sciences, 2019) can be followed below.

Holding throughout (type): physicochemical
A short description of data set [1]: MEKC lipophilicity (SDS micelles, pH 7.4). The conditions noted are these: 50 mM SDS, HEPES/TRIS buffer pH 7.4, 25 °C. Here is the method:
All MEKC experiments were carried out with a P/ACE MDQ plus system (Sciex, Framingham, MA, USA) equipped with photodiode array detector (PDA) and controlled by 32 Karat software (version 10.2). The uncoated fused silica capillaries (50 µm i.d., Polymicro Technologies, West Yorkshire, UK) of 60 cm total length and 50.2 cm effective length were used. Prior to analysis, the capillary was rinsed with 0.1 M NaOH for 30 min, ultrapure water for 10 min, and background electrolyte (BGE) for 30 min. After each analysis, the capillary was conditioned with BGE for 2 min. The applied pressure for all rinsing operations was 345 kPa. The analytes were dissolved in BGE at concentration of 100 µg/mL with addition of quinine (micelles marker). As electroosmotic flow (EOF) marker, DMSO was used. The samples were hydrodynamically injected at 35 kPa for 5 s. The separations were performed by applying voltage of 20 kV with positive polarity and constant temperatures at 25 ± 0.1 °C. The BGE consisted of aqueous solution of 50 mM SDS and 120 mM HEPES /100 mM TRIS buffer of pH 7.4. The BGE was prepared each working day by dilution of stock solution. Detection was carried out at 200 and 280 nm with 8 Hz probing frequency. The logarithm of retention factor logk was calculated according to the equation introduced by Terabe and co-workers:(10) logkMEKC=log(tR−tEOF/tEOF(1−tR/tMC)) The established logk parameters are summarized in Table 2.

The nature of data set [2]: RP-TLC lipophilicity, silica gel C18, methanol-water. The conditions noted are these: for C 0: RP-TLC silica gel C18, C0 = −RM^0/b; for PC1: RP-TLC silica gel C18, first principal component of RM values, contains 86.92% of information; for mRM: RP-TLC silica gel C18, mean value of RM; for R M ^0: RP-TLC silica gel C18, methanol-water 40 to 70% (v/v), intercept of Soczewiński–Wachtmeister equation; for b: RP-TLC silica gel C18, slope of Soczewiński–Wachtmeister equation. How it is done: (§1) The ready-to-use TLC glass plates covered by octadecyl(C18)- and octyl(C8)-modified TLC silica layers were purchased from Merck (Darmstadt, Germany). Stock solutions (5 µL) of the analytes were spotted manually on the plates with the use of a micropipette from Brand (Wertheim, Germany). The mobile phases were prepared by mixing appropriate volumes of pure organic solvents and water (in step gradient by 10% (v/v)), in the following proportions: (a) methanol–water ranging from 30 to 70% (v/v), in the case of C8-bonded silica gel stationary phase; and (b) methanol–water ranging from 40 to 70% (v/v), in the case of C18-bonded silica gel stationary phase.
(§2) Before analysis, the chromatographic chamber (Twin Trough Chambers from CAMAG Philadelphia, USA) was saturated for 20 min. All TLC experiments were performed at room temperature (22 ± 2 °C). Chromatograms were developed using the ascending technique to a distance of 8 cm. The investigated substances were visualized under UV light at λ = 366 nm by CAMAG UV Lamp 4 and the Viewing Box 4 (Philadelphia, USA). […] The obtained retardation factors (RF) were collected in the Supplementary data sheets. The retention parameter, RM, was calculated for each compound according to the Bate-Smith and Westall formula: (7) RM=log(1/RF−1) and listed in Table S2. Next, the Soczewiński–Wachtmeister’s equation: RM = RM^0 + bC(8) was used in order to determine the basic lipophilic RP-TLC parameter RM^0 as well as commonly used hydrophobic constants m. Soczewiński–Wachtmeister’s equation presented a linear relationship between concentration of the organic solvent in mobile phase (C) and RM value. Moreover, mean value of RM was used for lipophilicity assessments.
(§3) Furthermore, C0 RP-TLC lipophilicity parameter, introduced by Bieganowska, has been calculated according to the formula:(9) C0=−RM^0/b.
(§4) The C0 parameter corresponds to the parameter φ0, previously proposed for the HPLC. This parameter relates to the concentration of the organic component in the mobile phase for which the distribution of the analyzed substance between the mobile and stationary phase is equal (1:1).
(§5) Also, the principal component analysis (PCA) was applied in order to extract information regarding the lipophilicity of solutes and formulate them as the first principal component (PC1). Calculation data matrixes included RM values of solutes for each modifier concentration in the mobile phase.

A short description of data set [3]: RP-TLC lipophilicity, silica gel C8, methanol-water. The following applies: for C 0: RP-TLC silica gel C8, C0 = −RM^0/b; for PC1: RP-TLC silica gel C8, first principal component of RM values, contains 83.57% of information; for mRM: RP-TLC silica gel C8, mean value of RM; for R M ^0: RP-TLC silica gel C8, methanol-water 30 to 70% (v/v), intercept of Soczewiński–Wachtmeister equation; for b: RP-TLC silica gel C8, slope of Soczewiński–Wachtmeister equation. Here is the method: as §1, §2, §3, §4, §5

The structures appear in SMILES notation.

`O=C(O)C1=Cc2ccccc2N2C[N+]3(CCN(c4cc5c(cc4F)c(=O)c(C(=O)O)cn5C4CC4)CC3)N=C12.[Cl-]` [Compound 8] came in with a logk in data set [1] of −0.153. In addition, in data set [2], the “C 0” value is 1.07, the PC1 worked out at 1.18, the mRM was found to be 0.89 and the “R M ^0” value worked out at 1.83. The b in data set [2] was −1.71. Moreover, in data set [3], the “C 0” value came out at 1.09, the PC1 was −1.26, the mRM is 0.93 and the “R M ^0” value came out at 1.71. This molecule had a b in data set [3] of −1.56.

In data set [1], `CC1CN(c2c(F)c(N)c3c(=O)c(C(=O)O)cn(C4CC4)c3c2F)CC(C)[N+]12CN1C(=N2)C(C(=O)O)=Cc2ccccc21.[Cl-]` (centres unmarked) [Compound 3] had a logk of −0.070. In data set [2], the “C 0” value amounted to 0.88, the PC1 was determined as 0.34, the mRM is on record as 1.02 and the “R M ^0” value amounted to 2.75. This molecule also had a b in data set [2] of −3.13. In data set [3], the “C 0” value is 0.86, the PC1 was −3.48, the mRM turned out to be 1.15 and the “R M ^0” value stood at 2.74. Further, the b in data set [3] was −3.17.

`COc1c(N2CCNC(C)C2)c(F)cc2c(=O)c(C(=O)O)cn(C3CC3)c12` (centres unmarked) [Compound 21, reference compound] showed a logk in data set [1] of 0.101. Further, in data set [2], the “C 0” value came out at 1.06, the PC1 is reported as −1.63, the mRM is recorded as 1.31 and the “R M ^0” value is on record as 2.69. In addition, in data set [2], the b is −2.55. Besides, in data set [3], the “C 0” value was 0.95, the PC1 was −4.29, the mRM is 1.26 and the “R M ^0” value was 2.68. Also, the b in data set [3] is −2.83.

On to `CCn1cc(C(=O)O)c(=O)c2cc(F)c(N3CC[N+]4(CN5C(C)=CC(C)=C(C(=O)O)C5=N4)C(C)C3)c(F)c21.[Cl-]` (centres unmarked) [Compound 9], for which, in data set [1], the logk was −0.479. For the same molecule, in data set [2], the “C 0” value came out at 0.98, the PC1 was found to be 1.75, the mRM turned out to be 0.81 and the “R M ^0” value is 1.86. The molecule further gave a b in data set [2] of −1.91. In data set [3], the “C 0” value turned out to be 0.97, the PC1 was −0.11, the mRM was 0.79 and the “R M ^0” value is on record as 1.62. In addition, the b in data set [3] is given as −1.66.
